These results are taken from paper PMC11818041, “Pilot-Scale Production of Sericin-Derived Oligopeptides (SDOs) from Yellow Silk Cocoons: Peptide Characterization and Specifications” (Foods, 2025).

Where two headings read alike, the source gives them in different places. Marks after values point to notes of the source that are not given here. Residues, ends and D or L forms follow the SMILES beside them.

One experiment concerns the target ACE (Homo sapiens, UniProt P12821). The experiment in a line: ACE inhibitory activity assay (FAPGG substrate). The following applies: for inhibition at 200 µM: read-out: Inhibition (%) ACE. Type of experiment: biochemical.
For a further experiment, the target named is DPP-IV (Homo sapiens, UniProt P27487). As to the kind of experiment: DPP-IV inhibitory activity assay (GPN substrate). The conditions noted are these: for inhibition at 2500 µM / Inhibition (%) DPP-IV: synthetic peptide at 2.5 mM (final reaction concentration). The experiment is classed as biochemical.
Chain of DPP-IV (P27487 whole entry, species assumed): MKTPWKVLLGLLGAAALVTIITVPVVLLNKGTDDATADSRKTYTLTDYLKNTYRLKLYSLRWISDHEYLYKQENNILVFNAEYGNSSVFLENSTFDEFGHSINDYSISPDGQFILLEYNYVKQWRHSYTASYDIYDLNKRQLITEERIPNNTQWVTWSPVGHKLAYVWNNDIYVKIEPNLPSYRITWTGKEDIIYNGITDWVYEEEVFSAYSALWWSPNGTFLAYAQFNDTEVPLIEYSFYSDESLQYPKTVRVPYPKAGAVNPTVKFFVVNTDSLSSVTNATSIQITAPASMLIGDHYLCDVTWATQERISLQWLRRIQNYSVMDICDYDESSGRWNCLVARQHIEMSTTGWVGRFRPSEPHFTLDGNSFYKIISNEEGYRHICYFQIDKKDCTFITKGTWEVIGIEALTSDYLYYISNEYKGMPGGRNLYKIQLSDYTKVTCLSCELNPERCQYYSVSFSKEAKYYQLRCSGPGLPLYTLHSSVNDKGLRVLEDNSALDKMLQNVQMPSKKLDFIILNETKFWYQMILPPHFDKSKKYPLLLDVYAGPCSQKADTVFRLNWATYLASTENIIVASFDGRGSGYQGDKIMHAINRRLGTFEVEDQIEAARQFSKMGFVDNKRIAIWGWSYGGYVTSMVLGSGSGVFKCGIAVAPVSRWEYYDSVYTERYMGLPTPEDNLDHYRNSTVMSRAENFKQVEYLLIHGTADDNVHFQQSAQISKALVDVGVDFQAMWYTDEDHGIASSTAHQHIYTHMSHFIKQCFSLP
The nature of experiment [1]: Metal chelating activity (FeCl2/ferrozine). The following applies: reference against which IC50 values were compared.
Experimental: Following a 3 min dark incubation, 50 μL of 5 mM ferrozine was introduced and incubated for 20 min at ambient temperature in the absence of light. Absorbance was quantified at 562 nm. […] The chelating activity was determined using the following formula:Metal chelating activity (%) = [(Acontrol − Asample)/Acontrol] × 100
The nature of experiment [2]: ABTS radical scavenging activity. The conditions noted are these: standard against which IC50 values were compared. The procedure: The antioxidant activity was evaluated using a modified ABTS assay according to Laosam et al.. Then, ABTS stock solution was prepared by combining 7.0 mM ABTS with 2.6 mM potassium persulfate in 50 mM phosphate buffer (pH 7.4) and incubated in darkness for 12–16 h before use. Subsequently, the analysis was initiated by combining 20 μL of SDOs samples with 1980 μL of ABTS working solution (stock solution diluted with phosphate buffer to achieve an absorbance of 0.740 ± 0.020 at 734 nm). After 5 min of incubation in the dark, the absorbance was measured at 734 nm. […] With the formula below, the radical scavenging activity was calculated:Scavenging activity (%) = [(Acontrol − Asample)/Acontrol] × 100 where Acontrol and Asample represent the absorbance of control and sample, respectively.

Details of experiment [3]: method as in BIOPEP-UWM database. The conditions noted are these: fragments in brackets, activities listed jointly; ref BIOPEP-UWM database; cited from earlier work.
The mark [4] stands for this setting: synthetic peptide at 0.2 mM (final reaction concentration).
Where [5] appears, read: synthetic peptide, read-out: Inhibition (IC50 Value) ACE.
Setting [6] is: synthetic peptide, read-out: Inhibition (IC50 Value) DPP-IV.

Chain of ACE (P12821 30-1306, species assumed): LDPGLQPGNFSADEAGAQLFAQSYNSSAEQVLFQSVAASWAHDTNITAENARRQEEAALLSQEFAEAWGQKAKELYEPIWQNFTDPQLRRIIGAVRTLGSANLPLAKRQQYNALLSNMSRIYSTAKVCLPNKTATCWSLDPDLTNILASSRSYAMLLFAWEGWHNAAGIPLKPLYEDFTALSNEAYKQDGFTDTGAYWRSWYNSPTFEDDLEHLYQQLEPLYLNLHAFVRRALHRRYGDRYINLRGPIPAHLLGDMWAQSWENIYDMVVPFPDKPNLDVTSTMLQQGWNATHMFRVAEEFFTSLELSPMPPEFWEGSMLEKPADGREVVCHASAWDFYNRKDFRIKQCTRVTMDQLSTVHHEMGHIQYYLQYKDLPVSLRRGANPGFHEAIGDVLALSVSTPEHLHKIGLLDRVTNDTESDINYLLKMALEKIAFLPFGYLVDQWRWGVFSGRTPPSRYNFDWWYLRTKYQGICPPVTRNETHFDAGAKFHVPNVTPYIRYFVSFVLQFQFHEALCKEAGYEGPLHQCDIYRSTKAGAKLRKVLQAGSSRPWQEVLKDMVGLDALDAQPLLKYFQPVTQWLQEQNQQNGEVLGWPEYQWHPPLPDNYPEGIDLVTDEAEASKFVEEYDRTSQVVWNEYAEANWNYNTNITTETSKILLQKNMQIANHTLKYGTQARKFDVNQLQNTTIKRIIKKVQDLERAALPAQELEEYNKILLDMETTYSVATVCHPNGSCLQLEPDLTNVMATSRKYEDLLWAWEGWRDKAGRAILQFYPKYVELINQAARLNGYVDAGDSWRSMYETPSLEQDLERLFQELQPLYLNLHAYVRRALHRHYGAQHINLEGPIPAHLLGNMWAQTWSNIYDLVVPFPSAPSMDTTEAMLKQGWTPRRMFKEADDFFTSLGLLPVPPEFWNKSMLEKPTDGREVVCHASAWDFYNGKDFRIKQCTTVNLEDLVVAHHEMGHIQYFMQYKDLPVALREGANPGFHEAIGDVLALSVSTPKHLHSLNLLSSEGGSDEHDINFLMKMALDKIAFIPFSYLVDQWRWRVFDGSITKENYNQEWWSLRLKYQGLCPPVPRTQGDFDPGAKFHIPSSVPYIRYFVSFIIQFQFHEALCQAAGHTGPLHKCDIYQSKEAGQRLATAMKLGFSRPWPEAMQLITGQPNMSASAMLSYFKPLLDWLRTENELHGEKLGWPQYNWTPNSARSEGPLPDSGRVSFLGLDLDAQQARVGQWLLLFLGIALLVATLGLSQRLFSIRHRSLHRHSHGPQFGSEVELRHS

Broadly, the inhibition is the relative decrease from the control value, in per cent. What is called IC50 is the midpoint of a concentration-inhibition curve. `CC(C)C[C@H](NC(=O)[C@H](CC(=O)O)NC(=O)[C@H](Cc1ccccc1)NC(=O)[C@H](Cc1ccccc1)NC(=O)[C@@H](N)CCC(=O)O)C(=O)N1CCC[C@H]1C(=O)N[C@@H](Cc1ccc(O)cc1)C(=O)N[C@@H](Cc1c[nH]cn1)C(=O)O` (H-EFFDLPYH-OH): the inhibition at 200 µM at ACE (setting [4]) was 63.4 ± 1.6%. The IC50 on ACE (setting [5]) amounted to 158 ± 2.2 µM; at DPP-IV (setting [6]), 2.76 ± 0.03 mM. The same compound had an inhibition at 2500 µM against DPP-IV of 45.7 ± 1.86%.
Turning to `CC(C)C[C@H](NC(=O)[C@H](CO)NC(=O)[C@H](C)NC(=O)[C@H](CCC(=O)O)NC(=O)[C@H](C)NC(=O)[C@@H](N)C(C)C)C(=O)N1CCC[C@H]1C(=O)N[C@@H](CCCNC(=N)N)C(=O)O` (H-VAEASLPR-OH), at ACE (setting [4]), the inhibition at 200 µM amounted to 3.89 ± 0.61%. Moreover, at DPP-IV, the inhibition at 2500 µM was determined as 55.2 ± 0.69%. The IC50 at DPP-IV (setting [6]) was 1.92 ± 0.06 mM.
As for `CC(C)C[C@H](NC(=O)[C@@H](N)Cc1ccc(O)cc1)C(=O)N[C@@H](Cc1ccc(O)cc1)C(=O)N[C@@H](CC(N)=O)C(=O)N[C@@H](C)C(=O)NCC(=O)N[C@@H](C)C(=O)N[C@@H](CCCNC(=N)N)C(=O)O` (H-YLYNAGAR-OH), the inhibition at 200 µM at ACE (setting [4]) came to 89.2 ± 1.07%. Besides, on ACE (setting [5]), the IC50 came out at 77.28 ± 0.05 µM. For the same compound, at 2500 µM the inhibition on DPP-IV was 37 ± 0.95%.
`N[C@@H](CS)C(=O)N[C@@H](CCC(=O)O)C(=O)N[C@@H](Cc1ccccc1)C(=O)O` [CEF] (H-Cys-Glu-Phe-OH): the inhibition at 200 µM at ACE is 91.67 ± 0.73%. For the same compound, the IC50 at ACE (setting [5]) was 14.86 ± 0.1 µM. The inhibition at 2500 µM against DPP-IV was 23.49 ± 0.14%.
`O=C(O)CN(CCN(CC(=O)O)CC(=O)O)CC(=O)O` [EDTA]: in experiment [1], the “Metal chelating activity, value of the reference” value came to 0.31 mg/mL.
With `CC(C)C[C@H](NC(=O)[C@H](CC(C)C)NC(=O)[C@H](CC(C)C)NC(=O)[C@H](Cc1ccccc1)NC(=O)[C@@H](N)CCC(=O)O)C(=O)N[C@@H](Cc1c[nH]cn1)C(=O)N[C@@H](C)C(=O)O` [EFLLLHA] (H-EFLLLHA-OH), the inhibition at 200 µM on ACE (setting [4]) amounted to 58.3 ± 0.92%. Also, the IC50 at ACE (setting [5]) turned out to be 138.3 ± 1.04 µM; on DPP-IV (setting [6]), 3.57 ± 0.13 mM. The compound also gave an inhibition at 2500 µM on DPP-IV of 40.5 ± 1.74%.
With `CC(C)C[C@H](NC(=O)[C@H](CCC(=O)O)NC(=O)[C@H](Cc1ccc(O)cc1)NC(=O)[C@H](Cc1ccccc1)NC(=O)[C@@H](N)CCC(=O)O)C(=O)N[C@@H](C)C(=O)N[C@@H](CCCNC(=N)N)C(=O)O` [EFYELAR] (H-EFYELAR-OH), the inhibition at 200 µM on ACE (setting [4]) came out at 34 ± 2.33%. In addition, the inhibition at 2500 µM at DPP-IV is 56.2 ± 1.55%. For the same compound, at DPP-IV (setting [6]), the IC50 was 1.43 ± 0.03 mM.
As for `CC(C)C[C@H](NC(=O)[C@H](CCC(N)=O)NC(=O)[C@H](CCC(N)=O)NC(=O)[C@H](CO)NC(=O)[C@H](CC(N)=O)NC(=O)[C@@H](N)CCC(=O)O)C(=O)N[C@@H](Cc1c[nH]cn1)C(=O)O` [ENSQQLH] (H-ENSQQLH-OH), 2500 µM produced 40.4 ± 4.54% inhibition on DPP-IV. The IC50 on DPP-IV (setting [6]) came out at 2.54 ± 0.1 mM.
For `CC(C)C[C@H](NC(=O)[C@H](Cc1c[nH]c2ccccc12)NC(=O)[C@@H](NC(=O)[C@H](C)NC(=O)[C@@H](N)CC(C)C)[C@@H](C)O)C(=O)N1CCC[C@H]1C(=O)N[C@@H](CCCNC(=N)N)C(=O)O` [LATWLPR] (H-LATWLPR-OH), on ACE (setting [4]), the inhibition at 200 µM came to 36.1 ± 0.54%. This compound gave an inhibition at 2500 µM at DPP-IV of 47.4 ± 1.73%. Moreover, the IC50 on DPP-IV (setting [6]) was determined as 2.03 ± 0.15 mM.
For `CC(C)C[C@H](N)C(=O)N[C@@H](Cc1ccccc1)C(=O)N[C@@H](CC(=O)O)C(=O)N[C@@H](CCC(N)=O)C(=O)N1CCC[C@H]1C(=O)N[C@@H](Cc1ccc(O)cc1)C(=O)N[C@@H](Cc1ccccc1)C(=O)O` [LFDQPYF] (H-LFDQPYF-OH), in that order: 42.4 ± 2.64%, 45 ± 2.04% and 3.17 ± 0.17 mM.
Take `CC(C)C[C@H](NC(=O)[C@H](CC(N)=O)NC(=O)CNC(=O)[C@@H](N)CC(C)C)C(=O)N[C@@H](Cc1ccc(O)cc1)C(=O)N[C@@H](CC(=O)O)C(=O)N[C@@H](Cc1ccc(O)cc1)C(=O)O` [LGNLYDY] (H-LGNLYDY-OH): the inhibition at 200 µM on ACE (setting [4]) was determined as 58.6 ± 2.61%. Also, the IC50 on ACE (setting [5]) came to 162.1 ± 1.19 µM; on DPP-IV (setting [6]) it was 2.94 ± 0.09 mM. On DPP-IV, this compound showed an inhibition at 2500 µM of 42.88 ± 0.09%.
For `CC(C)C[C@H](NC(=O)[C@H](CC(=O)O)NC(=O)[C@H](Cc1ccccc1)NC(=O)[C@@H](N)CC(N)=O)C(=O)N1CCC[C@H]1C(=O)N[C@@H](Cc1ccc(O)cc1)C(=O)N[C@@H](Cc1c[nH]cn1)C(=O)O` [NFDLPYH] (H-NFDLPYH-OH), in that order: 69.53 ± 0.03%, 77.2 ± 2.7 µM, 2.38 ± 0.03 mM and 55.54 ± 0.34%.
As for `Cc1c(C)c2c(c(C)c1O)CCC(C)(C(=O)O)O2` (stereo not shown) [Trolox], in experiment [2], the “ABTS radical scavenging, value of the standard” value was 0.27 mg/mL.
Turning to `N=C(N)NCCC[C@H](NC(=O)[C@@H]1CCCN1C(=O)[C@H](Cc1ccccc1)NC(=O)[C@H](CCC(=O)O)NC(=O)[C@H](CS)NC(=O)[C@@H](N)Cc1c[nH]c2ccccc12)C(=O)O` [WCEFPR] (H-WCEFPR-OH), the inhibition at 200 µM on ACE (setting [4]) worked out at 75.4 ± 1.53%. In addition, the IC50 at ACE (setting [5]) was determined as 21.2 ± 1.86 µM; at DPP-IV (setting [6]), 2.82 ± 0.22 mM. At DPP-IV, this compound gave an inhibition at 2500 µM of 41.1 ± 0.43%.
Regarding `CSCC[C@H](NC(=O)[C@@H](N)Cc1c[nH]c2ccccc12)C(=O)N[C@@H](Cc1c[nH]cn1)C(=O)N[C@H](C(=O)N[C@@H](CCCNC(=N)N)C(=O)O)C(C)C` [WMHVR] (H-WMHVR-OH), the inhibition at 200 µM at ACE (setting [4]) came out at 61.3 ± 0.88%. Moreover, the IC50 at ACE (setting [5]) amounted to 118 ± 1.82 µM. The compound also gave an inhibition at 2500 µM on DPP-IV of 33.1 ± 2.67%.
For `CC(C)C[C@H](NC(=O)[C@H](CC(=O)O)NC(=O)[C@@H]1CCCN1C(=O)[C@@H](N)Cc1ccc(O)cc1)C(=O)N1CCC[C@H]1C(=O)N[C@@H](Cc1ccc(O)cc1)C(=O)N[C@@H](Cc1c[nH]cn1)C(=O)O` [YPDLPYH] (H-YPDLPYH-OH), the inhibition at 200 µM on ACE (setting [4]) was determined as 86 ± 1.66%. Also, the IC50 was 18.1 ± 0.05 µM on ACE (setting [5]) and 1.35 ± 0.04 mM on DPP-IV (setting [6]). The inhibition at 2500 µM against DPP-IV was determined as 56.9 ± 1.47%.
For the compound `CC(C)C[C@H](NC(=O)[C@H](CC(=O)O)NC(=O)[C@@H]1CCCN1C(=O)[C@@H](N)Cc1ccc(O)cc1)C(=O)O` [YPDL] (H-YPDL-OH), on ACE, the IC50 is above 200 µM. Moreover, the inhibition at 200 µM at ACE (setting [4]) was determined as 11.8 ± 2.26%. At DPP-IV, this compound had an IC50 of 2.39 ± 0.06 mM and an inhibition at 2500 µM of 48.3 ± 0.59%.
Regarding AEF, the “Inhibition (%) ACE” value on ACE (setting [4]) is 6.04 ± 1.41 ^o %. Also, the “Inhibition (%) DPP-IV” value at DPP-IV was 21.93 ± 0.35 ^n %.
For the compound DDK, the “Inhibition (%) DPP-IV” value at DPP-IV is on record as 37.22 ± 0.43 ^ghij %.
Still for that read-out and setting: in the case of EFF it was 30.57 ± 1.97 ^kl %; in that of EFL, 38.00 ± 1.38 ^fghi %.
For the compound EFYE, on DPP-IV, the “Inhibition (%) DPP-IV” value is 36.03 ± 0.51 ^ghij %.
For LFD, the “Inhibition (%) DPP-IV” value on DPP-IV is listed as 33.85 ± 1.27 ^ijk %.
Regarding “LFDLMEH [SDO peptide identified in fraction F8]”, the “Inhibition (%) DPP-IV” value with DPP-IV is reported as 37.28 ± 0.69 ^ghij %.
Consider LGN, for which, at ACE (setting [4]), the “Inhibition (%) ACE” value is listed as 44.11 ± 0.96 ^g %. The “Inhibition (%) DPP-IV” value on DPP-IV is given as 35.84 ± 0.09 ^hij %.
Consider MED, for which the “Inhibition (%) DPP-IV” value on DPP-IV is 38.87 ± 0.64 ^fghi %.
In the case of MEH, at ACE (setting [4]), the “Inhibition (%) ACE” value is on record as 11.20 ± 0.04 ^n %. In addition, on DPP-IV, the “Inhibition (%) DPP-IV” value was 37.20 ± 3.18 ^ghij %.
For NPR, in that order: 17.84 ± 0.68 ^k % and 36.70 ± 0.09 ^ghij %.
For PYH, in that order: 15.69 ± 1.82 ^klm % and 29.97 ± 0.60 ^kl %.
With QTA, the “Inhibition (%) ACE” value at ACE (setting [4]) is recorded as 16.48 ± 1.26 ^kl %. Moreover, the “Inhibition (%) DPP-IV” value at DPP-IV was 10.54 ± 1.90 ^o %.
“QTALVELLQ [SDO peptide identified in fraction F1]”: the “Inhibition (%) DPP-IV” value with DPP-IV is recorded as 22.20 ± 0.26 ^n %.
In the case of WGWNPR, the “Inhibition (%) ACE” value at ACE (setting [4]) is recorded as 23.69 ± 2.90 ^j %. In addition, at DPP-IV, the “Inhibition (%) DPP-IV” value is on record as 37.45 ± 1.55 ^ghij %.
As for YDY, the “Previous Reported Bioactivity of the Fragments (BIOPEP-UWM Database)” value in experiment [3] is recorded as “(YDY) Antioxidative”.
